Earlier results in patent US5360794A, “Disubstituted and deoxy disubstituted derivatives of α-D-mannofuranosides and β-L-gulofuranosides having anti-inflammatory and anti-proliferative activity” (Medicarb Inc., priority 1992, dated 1994).
Structures can show the parent of a compound that is named as a salt.

Test system: rheumatoid arthritis
Conditions: late Phase III clinical trials; cited from earlier work

Q: For CN(C)CCCO[C@@H]1[C@H]2OC(C)(C)O[C@H]2O[C@@H]1[C@H](O)CO [Amiprilose HCl, 1,2-O-isopropylidene-3-O-3'-(N', N'-dimethylaminopropyl)-α-D-glucofuranose], which “clinical utility in rheumatoid arthritis” value is on record?
A: demonstrated utility in managing the signs and symptoms of rheumatoid arthritis
